For assay [1], the system named is T1, Ubiquitin carboxyl-terminal hydrolase 5 (Homo sapiens), P45974 [C335A,H818A].
T1 sequence (whole entry): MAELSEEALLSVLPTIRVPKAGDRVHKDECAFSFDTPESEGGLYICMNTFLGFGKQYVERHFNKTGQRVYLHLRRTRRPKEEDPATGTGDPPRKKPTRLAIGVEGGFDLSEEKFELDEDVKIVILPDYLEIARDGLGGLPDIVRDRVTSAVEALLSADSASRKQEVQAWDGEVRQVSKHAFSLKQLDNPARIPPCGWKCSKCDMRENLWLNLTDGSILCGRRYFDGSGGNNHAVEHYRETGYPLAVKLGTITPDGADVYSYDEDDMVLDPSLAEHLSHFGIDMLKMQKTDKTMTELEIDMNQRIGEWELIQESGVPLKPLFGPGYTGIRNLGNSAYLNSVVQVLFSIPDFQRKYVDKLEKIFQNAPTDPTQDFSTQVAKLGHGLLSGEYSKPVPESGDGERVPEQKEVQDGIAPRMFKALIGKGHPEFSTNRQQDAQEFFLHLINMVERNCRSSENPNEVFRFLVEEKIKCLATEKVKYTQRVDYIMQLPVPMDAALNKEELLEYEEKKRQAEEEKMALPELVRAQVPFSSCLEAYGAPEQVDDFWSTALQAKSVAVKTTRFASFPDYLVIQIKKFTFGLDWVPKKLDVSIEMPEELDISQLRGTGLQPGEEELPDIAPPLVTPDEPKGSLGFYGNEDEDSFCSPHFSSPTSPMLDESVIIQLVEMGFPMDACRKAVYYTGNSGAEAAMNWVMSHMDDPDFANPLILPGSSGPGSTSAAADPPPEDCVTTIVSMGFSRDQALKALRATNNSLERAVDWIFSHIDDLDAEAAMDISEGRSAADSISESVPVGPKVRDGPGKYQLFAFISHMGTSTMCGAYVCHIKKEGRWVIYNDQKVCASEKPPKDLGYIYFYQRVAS
The assay can be described thus: Competitive binding affinity to human USP5 C335A/H818A mutant by SDS-PAGE analysis in presence of biotin-DMT.

The subject of assay [2] is T2, Ubiquitin carboxyl-terminal hydrolase 5 (Homo sapiens), P45974 [C335A].
T2 sequence (whole entry): T1 sequence (whole entry) with A818H
The assay can be described thus: Competitive binding affinity to human USP5 C335A mutant by SDS-PAGE analysis in presence of biotin-DMT.

Substitutions are numbered along the chain they refer to. Activity calls are given as the source filed them. No cut-off for these calls is given here.

Consider `O=C(Cc1ccccc1)Oc1c(OC(=O)Cc2ccccc2)c(-c2ccc(O)cc2)c(O)c(O)c1-c1ccc(O)cc1` [VIALININ A], for which the outcome in assay [1] and in assay [2] was inactive.
